Values quoted from earlier work as cited in patent publication US20050107870A1, “Medical device with multiple coating layers” (priority 2003, published 2005).
Structures can show the parent of a compound that is named as a salt. Values belong to the compound of their own block, whether it stands above or below them.

How the values were obtained:
[1] = hydrophilic magnetically responsive microspheres
[2] = test system: breast cancer cells
[3] = test system: cancer cells; conditions: exposed to low-level electromagnetic fields present in some North American homes

incorporated concentration of therapeutic agent in microspheres [1]: up to 50 wt %
Compound: COc1cccc2c1C(=O)c1c(O)c3c(c(O)c1C2=O)C[C@@](O)(C(=O)CO)C[C@@H]3O[C@H]1C[C@H](N)[C@H](O)[C@H](C)O1 [adriamycin, doxorubicin hydrochloride]

Compound: COc1ccc2[nH]cc(CCNC(C)=O)c2c1 [melatonin]
growth of breast cancer cells ([2]; cells exposed to 2 milligauss magnetic fields): inhibit the growth of breast cancer cells
growth-inhibiting activity on breast cancer cells ([2]; cells in a 12 milliGauss field): essentially reased

Compound: CC/C(=C(\c1ccccc1)c1ccc(OCCN(C)C)cc1)c1ccccc1 [tamoxifen]
ability to halt the proliferation of cancer cells [3]: lost its ability to halt the proliferation of cancer cells
